Laboratory results as given in patent US12325710B2, “Substituted 1,2,3,4,5,6-hexahydroazepino[4,5-b]indoles for treating brain disorders” (priority 2019, dated 2025).
Entries after “also recorded” stand apart in the source; their conditions may differ.

Experiments:
larval zebrafish [1] = test: Heart rate and arrhythmia in immobilized larval zebrafish
physchem = conditions: saline or isotonic
larval zebrafish [2] = test: Larval zebrafish movement activity during a battery of light and acoustic stimuli
Text: Stimuli applied over time are indicated under the heatmaps. Colors indicate bright LED light of respective colors, black traces represent the waveforms of acoustic stimuli, and gray vertical lines indicate physical tapping as secondary acoustic stimuli.
Response is […] proportional to classification accuracy; 0-20% indicates no ability and 100% indicates perfect classification. […] The solid line denotes the median and the shading denotes a 95th percentile confidence interval calculated by bootstrap. N=8 wells/condition (64 animals/condition).

[3] = tested on: rat embryonic cortical neurons (DIV20); test: Spinogenesis in mature cortical cultures (DIV20); format: cell-based; conditions: DIV20, treatment for 24 h
Experimental: Spinogenesis Experiments. Spinogenesis experiments were performed as previously described with the exception that cells were treated on DIV19 and fixed 24 h after treatment on DIV20. (Ly, C. et al., 2018) The images were taken on a Nikon HCA Confocal microscope a with a 100×/NA 1.45 oil objective. DMSO and ketamine (10 μM) were used as vehicle and positive controls, respectively.

5-HT2C = molecular target: T1, 5-HT2C (Homo sapiens, UniProt P28335); test: 5-HT2C Gq-mediated calcium flux functional assay; format: cell-based
T1 sequence (P28335 33-458): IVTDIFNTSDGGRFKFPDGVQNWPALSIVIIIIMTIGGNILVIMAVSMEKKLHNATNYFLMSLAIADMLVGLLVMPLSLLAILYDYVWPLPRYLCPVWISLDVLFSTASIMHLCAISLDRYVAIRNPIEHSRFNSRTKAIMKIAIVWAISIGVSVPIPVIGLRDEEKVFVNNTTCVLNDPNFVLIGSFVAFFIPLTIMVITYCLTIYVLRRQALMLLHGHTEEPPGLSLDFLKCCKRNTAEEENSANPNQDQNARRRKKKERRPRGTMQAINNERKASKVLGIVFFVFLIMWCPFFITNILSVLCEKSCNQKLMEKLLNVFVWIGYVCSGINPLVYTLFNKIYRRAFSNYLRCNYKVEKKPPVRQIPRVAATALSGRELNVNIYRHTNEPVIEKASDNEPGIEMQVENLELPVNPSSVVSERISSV
Experimental: (§1) Serotonin and Opioid Receptor Functional Assays. Functional assay screens at 5-HT and opioid receptors were performed in parallel using the same compound dilutions and 384-well format high-throughput assay platforms. Assays assessed activity at all human isoforms of the receptors, except where noted for the mouse 5-HT2A receptor. Receptor constructs in pcDNA vectors were generated from the Presto-Tango GPCR library with minor modifications. All compounds were serially diluted in drug buffer (HBSS, 20 mM HEPES, pH 7.4 supplemented with 0.1% bovine serum albumin and 0.01% ascorbic acid) and dispensed into 384-well assay plates using a FLIPR^TETRA (Molecular Devices). Every plate included a positive control such as 5-HT (for all 5-HT receptors), DADLE (DOR), salvinorin A (KOR), and DAMGO (MOR). For measurements of 5-HT2A, 5-HT2B, and 5-HT2C Gq-mediated calcium flux function, HEK Flp-In 293 T-Rex stable cell lines (Invitrogen) were loaded with Fluo-4 dye for one hour, stimulated with compounds and read for baseline (0-10 seconds) and peak fold-over-basal fluorescence (5 minutes) at 25° C. on the FLIPR^TETRA. For measurement of 5-HT6 and 5-HT7a functional assays, Gs-mediated cAMP accumulation was detected using the split-luciferase GloSensor assay in HEKT cells measuring luminescence on a Microbeta Trilux (Perkin Elmer) with a 15 min drug incubation at 25° C. […]

5-HT2B receptors = 5-HT2B receptors (Homo sapiens, UniProt P41595); test: 5-HT2B Gq-mediated calcium flux functional assay; format: cell-based
Chain of 5-HT2B receptors (P41595 whole entry, canonical isoform): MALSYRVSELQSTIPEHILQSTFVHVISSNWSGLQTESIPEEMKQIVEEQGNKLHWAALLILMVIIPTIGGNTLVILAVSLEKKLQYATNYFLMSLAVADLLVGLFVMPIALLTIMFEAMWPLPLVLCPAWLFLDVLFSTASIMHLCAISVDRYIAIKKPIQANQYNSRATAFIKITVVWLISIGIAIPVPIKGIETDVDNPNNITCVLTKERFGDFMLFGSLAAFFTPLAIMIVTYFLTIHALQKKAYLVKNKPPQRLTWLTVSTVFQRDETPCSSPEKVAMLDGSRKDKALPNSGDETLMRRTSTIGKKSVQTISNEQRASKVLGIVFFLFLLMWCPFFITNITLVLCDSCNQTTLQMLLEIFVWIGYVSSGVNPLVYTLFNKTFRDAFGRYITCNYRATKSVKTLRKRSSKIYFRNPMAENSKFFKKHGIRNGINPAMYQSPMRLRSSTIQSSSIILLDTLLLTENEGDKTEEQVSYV
Experimental: Serotonin and Opioid Receptor Functional Assays. Functional assay screens at 5-HT and opioid receptors were performed in parallel using the same compound dilutions and 384-well format high-throughput assay platforms. Assays assessed activity at all human isoforms of the receptors, except where noted for the mouse 5-HT2A receptor. Receptor constructs in pcDNA vectors were generated from the Presto-Tango GPCR library with minor modifications. All compounds were serially diluted in drug buffer (HBSS, 20 mM HEPES, pH 7.4 supplemented with 0.1% bovine serum albumin and 0.01% ascorbic acid) and dispensed into 384-well assay plates using a FLIPR^TETRA (Molecular Devices). Every plate included a positive control such as 5-HT (for all 5-HT receptors), DADLE (DOR), salvinorin A (KOR), and DAMGO (MOR). For measurements of 5-HT2A, 5-HT2B, and 5-HT2C Gq-mediated calcium flux function, HEK Flp-In 293 T-Rex stable cell lines (Invitrogen) were loaded with Fluo-4 dye for one hour, stimulated with compounds and read for baseline (0-10 seconds) and peak fold-over-basal fluorescence (5 minutes) at 25° C. on the FLIPR^TETRA. For measurement of 5-HT6 and 5-HT7a functional assays, Gs-mediated cAMP accumulation was detected using the split-luciferase GloSensor assay in HEKT cells measuring luminescence on a Microbeta Trilux (Perkin Elmer) with a 15 min drug incubation at 25° C. For 5-HT1A, 5-HT1B, 5-HT1F, MOR, KOR, and DOR functional assays, Gi/o-mediated cAMP inhibition was measured using the split-luciferase GloSensor assay in HEKT cells, conducted similarly as above, but in combination with either 0.3 μM isoproterenol (5-HT1A, 5-HT1B, 5-HT1F) or 1 μM forskolin (MOR, KOR, and DOR) to stimulate endogenous cAMP accumulation. For measurement of 5-HT1D, 5-HT1E, 5-HT4, and 5-HT5A functional assays, β-arrestin2 recruitment was measured by the Tango assay utilizing HTLA cells expressing TEV fused-β-arrestin2, as described previously with minor modifications. […]

C57/BL6J mice = test: Two-bottle choice alcohol consumption (binge drinking); format: in vivo, mouse
Experimental: Alcohol Consumption. Male C57/BL6J mice (6-8 weeks old) were obtained from The Jackson Laboratory (Bar Harbor, ME) and were individually housed in a reverse light/dark cycle room (lights on […]). Temperature was kept constant at 22±2° C., and relative humidity was maintained at 50±5%. Mice were given access to food and tap water ad libitum. After one week of habituation to the vivarium, the two-bottle choice alcohol-drinking paradigm was conducted as described previously. For 7 weeks, mice were given intermittent access in their home cage to alcohol. On Mondays, Wednesdays, and Fridays, two bottles were made available for 24 h—one containing 20% ethanol and another containing only water. On Tuesdays, Thursdays, Saturdays, and Sundays, the animals were only given access to water. After 7 weeks, mice were administered TBG (50 mg/kg) or vehicle (saline) via intraperitoneal injection 3 h before the beginning of a drinking session. Ethanol (g/kg) and water (ml/kg) intake were monitored during the first 4 h (initial binge), the first 24 h, and the second 24 h. Next, the animals were only given water for 48 h before the start of another drinking session when ethanol and water consumption was monitored. The placement (right or left) of the bottles was altered in each session to control for side preference. Spillage was monitored using an additional bottle in a nearby unused cage. Alcohol preference was calculated as the ratio between alcohol/(water+alcohol). Mice were tested using a counterbalanced, within subject design with one week of drug-free alcohol drinking regimen between treatments. One mouse was excluded because the bottle was leaking.

[4] = tested on: larval zebrafish expressing GCaMP5; test: Seizurogenic potential in larval zebrafish expressing GCaMP5; format: in vivo; conditions: 200 μM; PTZ positive control
Experimental: Transgenic larval zebrafish expressing GCaMP5G were immobilized in agarose, treated with compounds, and imaged over time. The known seizure-inducing compound PTZ was used as a positive control. All compounds were treated at 200 μM (n=2 per condition).

mouse 5-HT2A receptors = mouse 5-HT2A receptors (Mus musculus, UniProt P35363); test: 5-HT2A Gq-mediated calcium flux functional assay (mouse); format: cell-based
Chain of mouse 5-HT2A receptors (P35363 whole entry): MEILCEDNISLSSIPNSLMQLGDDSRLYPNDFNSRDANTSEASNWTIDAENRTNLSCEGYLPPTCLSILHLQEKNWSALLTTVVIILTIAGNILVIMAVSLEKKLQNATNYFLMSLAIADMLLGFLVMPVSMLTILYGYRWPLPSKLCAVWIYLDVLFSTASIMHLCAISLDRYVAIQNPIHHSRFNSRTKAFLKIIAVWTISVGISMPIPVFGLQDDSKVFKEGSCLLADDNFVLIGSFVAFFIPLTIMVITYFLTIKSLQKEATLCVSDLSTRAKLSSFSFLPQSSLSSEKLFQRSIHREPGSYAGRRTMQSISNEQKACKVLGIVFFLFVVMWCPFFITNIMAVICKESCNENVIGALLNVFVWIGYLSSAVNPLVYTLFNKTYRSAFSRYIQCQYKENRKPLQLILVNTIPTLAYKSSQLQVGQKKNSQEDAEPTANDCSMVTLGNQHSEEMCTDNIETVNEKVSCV
Experimental: as §1

In the case of `COc1ccc2c3c([nH]c2c1)CCN(C)CC3` [TBG], the “heart rate (bradycardia)” value (larval zebrafish [1]) is reported as “Neither IBG nor TBG induced these undesirable phenotypes; also recorded: do not induce bradycardia”, the “likelihood of arrhythmias (ratio of atrium to ventricle BPM)” value (larval zebrafish [1]) is reported as “Neither IBG nor TBG induced these undesirable phenotypes” and the solubility (physchem) is reported as no less than 40 mg/mL. The “behavioral phenotype at highest concentration versus lethal control” value (larval zebrafish [2]; 200 μM) was “did not produce this phenotype”, the “behavioral phenotype with increasing concentration versus vehicle and lethal control (eugenol, 100 μM)” value (larval zebrafish [2]; 1 h treatment, concentration-response) was “do not produce movement responses in larval zebrafish similar to a lethal concentration of eugenol” and the “machine learning classification of movement responses” value (larval zebrafish [2]; highest concentrations (200 μM)) was “more similar to vehicle controls than to ibogaine, noribogaine, or lethal controls”. The dendritic spine density [3] was “increases dendritic spine density to a comparable extent as ibogaine”, the “5-HT2C agonist activity compared to 5-MeO-DMT” value (5-HT2C) was “weaker 5-HT1A and 5-HT2C agonist activity” and the “activity mode at 5-HT2B receptors” value (5-HT2B receptors) was “antagonists”. The “EtOH consumption in the days following administration” value (C57/BL6J mice; TBG 50 mg/kg i.p.) was “long-lasting decreases in EtOH consumption; also recorded: lower for at least two days”, the “EtOH preference during binge drinking session” value (C57/BL6J mice; TBG 50 mg/kg i.p.) was “reduces EtOH consumption and preference” and the water intake (C57/BL6J mice; TBG 50 mg/kg i.p.) was “without impacting H2O intake; also recorded: not affected”. For the same compound, the “EtOH consumption during binge drinking session” value (C57/BL6J mice; first 4 h, TBG 50 mg/kg i.p. 3 h before session) was “reduces EtOH consumption and preference; also recorded: robustly reduces binge drinking”, the “seizure induction (neural activity)” value [4] was “Neither ibogaine nor TBG produced excessive neural activity; also recorded: does not induce seizures” and the “agonist activity at mouse 5-HT2A receptors” value (mouse 5-HT2A receptors) was “potent agonist activity”.
